Assay results taken from ChEMBL document CHEMBL4808247 (Bioorg Med Chem, 2021).
In brackets after ≈: the same amount, converted by molar mass.

Legend:
Escherichia coli [1] = test: Antibacterial activity against Escherichia coli SR34100 producing class A beta-lactamase, CTX-M-15 assessed as reduction in microbial growth incubated for 16 to 20 hrs by broth microdilution method; assay type: functional; conditions: time 16-20 hrs
Klebsiella pneumoniae [2] = test: Antibacterial activity against Klebsiella pneumoniae PLE producing class D beta-lactamase, OXA-48 assessed as reduction in microbial growth incubated for 16 to 20 hrs by broth microdilution method; assay type: functional; conditions: time 16-20 hrs
Enterobacter cloacae [3] = test: Antibacterial activity against Enterobacter cloacae IR32 producing class B beta-lactamase, NDM1 assessed as reduction in microbial growth incubated for 16 to 20 hrs by broth microdilution method; assay type: functional; conditions: time 16-20 hrs
Escherichia coli [4] = test: Antibacterial activity against Escherichia coli NIHJ JC-2 assessed as reduction in microbial growth incubated for 16 to 20 hrs by broth microdilution method; assay type: functional; conditions: time 16-20 hrs
Klebsiella pneumoniae [5] = test: Antibacterial activity against Klebsiella pneumoniae JMI:211 producing class A beta-lactamase, KPC-2 assessed as reduction in microbial growth incubated for 16 to 20 hrs by broth microdilution method; assay type: functional; conditions: time 16-20 hrs
Enterobacter cloacae [6] = test: Antibacterial activity against Enterobacter cloacae SR36276 producing class C beta-lactamase, AmpC assessed as reduction in microbial growth incubated for 16 to 20 hrs by broth microdilution method; assay type: functional; conditions: time 16-20 hrs
Escherichia coli [7] = test: Antibacterial activity against Escherichia coli BL21(DE3) transfected with pET9a vector harboring class D beta lactamase, OXA-48 incubated for 16 to 20 hrs by broth microdilution method; assay type: functional; conditions: time 16-20 hrs
Escherichia coli [8] = test: Antibacterial activity against Escherichia coli SR34100 producing class A beta lactamase, CTX-M-15 assessed as reduction in microbial growth incubated for 16 to 20 hrs in presence of avibactam by broth microdilution method
Enterobacter cloacae [9] = test: Antibacterial activity against Enterobacter cloacae 1,261,347 producing class A beta lactamase, PER-2 assessed as reduction in microbial growth incubated for 16 to 20 hrs in presence of avibactam by broth microdilution method; assay type: functional; conditions: time 16-20 hrs
Klebsiella pneumoniae [10] = test: Antibacterial activity against Klebsiella pneumonia ATCC 13883 infected in cyclophosphamide-induced neutropenic Jcl:ICR mouse model assessed as log10 reduction in CFU at 10 mg/kg, sc administered at 2, 5 and 8 hrs after infection and measured at 10 hrs after infection; assay type: functional
Enterobacter cloacae [11] = test: Antibacterial activity against Enterobacter cloacae IR32 producing class B beta-lactamase, NDM-1 assessed as reduction in microbial growth incubated for 16 to 20 hrs in presence of avibactam by broth microdilution method; assay type: functional; conditions: time 16-20 hrs
Klebsiella pneumoniae [12] = test: Antibacterial activity against Klebsiella pneumoniae JMI:211 producing class A beta lactamase, KPC-2 assessed as reduction in microbial, growth incubated for 16 to 20 hrs in presence of avibactam by broth microdilution method; assay type: functional; conditions: time 16-20 hrs
Escherichia coli [13] = test: Antibacterial activity against Escherichia coli BL21(DE3) transfected with pET9a empty vector incubated for 16 to 20 hrs by broth microdilution method; assay type: functional; conditions: time 16-20 hrs
Enterobacterales [14] = test: Antimicrobial activity against Enterobacterales producing VIM assessed as reduction in microbial growth measured after 16 to 20 hrs in presence of avibactam by broth microdilution method; assay type: functional; conditions: time 16-20 hrs
Klebsiella pneumoniae [15] = test: Antibacterial activity against Klebsiella pneumonia ATCC 13883 infected in cyclophosphamide-induced neutropenic Jcl:ICR mouse model assessed as log10 reduction in CFU at 3 mg/kg, sc administered at 2, 5 and 8 hrs after infection and measured at 10 hrs after infection; assay type: functional
Escherichia coli [16] = test: Antibacterial activity against Escherichia coli NIHJ JC-2 strain assessed as reduction in microbial growth incubated for 16 to 20 hrs in presence of avibactam by broth microdilution method; assay type: functional; conditions: time 16-20 hrs
Enterobacterales [17] = test: Antimicrobial activity against Enterobacterales producing KPC assessed as reduction in microbial growth measured after 16 to 20 hrs in presence of avibactam by broth microdilution method; assay type: functional; conditions: time 16-20 hrs
Escherichia coli [18] = test: Antibacterial activity against Escherichia coli BL21(DE3) transfected with pET9a vector harboring class A beta lactamase, CTX-M-15 incubated for 16 to 20 hrs by broth microdilution method; assay type: functional; conditions: time 16-20 hrs
Enterobacterales [19] = test: Antimicrobial activity against Enterobacterales producing OXA-48 assessed as reduction in microbial growth measured after 16 to 20 hrs in presence of avibactam by broth microdilution method; assay type: functional; conditions: time 16-20 hrs
Klebsiella pneumoniae [20] = test: Antibacterial activity against Klebsiella pneumoniae PLE producing class D beta lactamase, OXA-48 assessed as reduction in microbial growth incubated for 16 to 20 hrs in presence of avibactam by broth microdilution method; assay type: functional; conditions: time 16-20 hrs
Enterobacter cloacae [21] = test: Antibacterial activity against Enterobacter cloacae SR36276 producing class C beta lactamase, AmpC assessed as reduction in microbial growth incubated for 16 to 20 hrs in presence of avibactam by broth microdilution method; assay type: functional; conditions: time 16-20 hrs
Klebsiella pneumoniae [22] = test: Antibacterial activity against Klebsiella pneumoniae ATCC13883 assessed as reduction in microbial growth incubated for 16 to 20 hrs by broth microdilution method; assay type: functional; conditions: time 16-20 hrs
Escherichia coli [23] = test: Antibacterial activity against Escherichia coli BL21(DE3) transfected with pET9a vector harboring class C beta lactamase, AmpC incubated for 16 to 20 hrs by broth microdilution method; assay type: functional; conditions: time 16-20 hrs
Escherichia coli [24] = test: Antibacterial activity against Escherichia coli BL21(DE3) transfected with pET9a vector harboring class B beta lactamase, NDM-1 incubated for 16 to 20 hrs by broth microdilution method; assay type: functional; conditions: time 16-20 hrs
Enterobacterales [25] = test: Antimicrobial activity against Enterobacterales producing NDM assessed as reduction in microbial growth measured after 16 to 20 hrs in presence of avibactam by broth microdilution method; assay type: functional; conditions: time 16-20 hrs
[26] = Ratio of MIC for antibacterial activity against Escherichia coli BL21(DE3) transfected with pET9a vector harboring class C beta lactamase AmpC to MIC for antibacterial activity against Escherichia coli BL21(DE3); assay type: functional
[27] = Ratio of MIC for antibacterial activity against Escherichia coli BL21(DE3) transfected with pET9a vector harboring class B beta lactamase NDM-1 to MIC for antibacterial activity against Escherichia coli BL21(DE3); assay type: functional

## C[C@H](O/N=C(\C(=O)N[C@@H]1C(=O)N2[C@@H]1SC[C@@H]1CC(=O)O[C@@]12C(=O)O)c1csc(N)n1)C(=O)O (stereo in doubt)
Escherichia coli [1]
  MIC: 0.5 µg/mL
Klebsiella pneumoniae [2]
  MIC: 0.5 µg/mL
Enterobacter cloacae [3]
  MIC: 0.25 µg/mL
Escherichia coli [4]
  MIC: 0.125 µg/mL
Klebsiella pneumoniae [5]
  MIC: 0.25 µg/mL
Enterobacter cloacae [6]
  MIC: 16 µg/mL

## CC(C)(O/N=C(\C(=O)N[C@@H]1C(=O)N2C(C(=O)[O-])=C(C[n+]3ccccc3)CS[C@H]12)c1csc(N)n1)C(=O)O [CEFTAZIDIME]
Escherichia coli [7]
  MIC: 0.063 µg/mL (≈ 0.115 µM)
Escherichia coli [8]
  MIC: 1 µg/mL
Enterobacter cloacae [9]
  MIC: > 32 µg/mL
Escherichia coli [1]
  MIC: > 32 µg/mL
Klebsiella pneumoniae [2]
  MIC: 1 µg/mL
Klebsiella pneumoniae [10]
  Activity: 3.05 log10CFU
Enterobacter cloacae [3]
  MIC: > 32 µg/mL
Enterobacter cloacae [11]
  MIC: > 32 µg/mL
Klebsiella pneumoniae [12]
  MIC: 1 µg/mL
Escherichia coli [13]
  MIC: 0.063 µg/mL (≈ 0.115 µM)
Enterobacterales [14]
  MIC50: > 64 µg/mL
  MIC90: > 64 µg/mL
Klebsiella pneumoniae [15]
  Activity: 2.67 log10CFU
Escherichia coli [16]
  MIC: 0.25 µg/mL
Enterobacterales [17]
  MIC50: 4 µg/mL
  MIC90: > 64 µg/mL
Escherichia coli [18]
  MIC: 0.25 µg/mL (≈ 0.457 µM)
Enterobacterales [19]
  MIC50: 0.125 µg/mL
  MIC90: 4 µg/mL
Klebsiella pneumoniae [20]
  MIC: 0.25 µg/mL
Enterobacter cloacae [21]
  MIC: 1 µg/mL
Escherichia coli [4]
  MIC: 0.25 µg/mL
Klebsiella pneumoniae [22]
  MIC: 0.25 µg/mL
Enterobacter cloacae [6]
  MIC: > 32 µg/mL
Escherichia coli [23]
  MIC: 0.25 µg/mL (≈ 0.457 µM)
Escherichia coli [24]
  MIC: > 16 µg/mL
Enterobacterales [25]
  MIC50: > 64 µg/mL
  MIC90: > 64 µg/mL

## Nc1nc(/C(=N/OC2(C(=O)O)CC2)C(=O)N[C@@H]2C(=O)N3[C@@H]2[S@@+]([O-])C[C@@H]2CC(=O)O[C@@]23C(=O)O)cs1 (stereo in doubt)
Escherichia coli [1]
  MIC: 0.5 µg/mL
Klebsiella pneumoniae [2]
  MIC: 0.5 µg/mL
Enterobacter cloacae [3]
  MIC: 0.25 µg/mL
Escherichia coli [4]
  MIC: 0.25 µg/mL
Klebsiella pneumoniae [5]
  MIC: 0.5 µg/mL
Enterobacter cloacae [6]
  MIC: 0.25 µg/mL

## Nc1nc(/C(=N/OC2(C(=O)O)CC2)C(=O)N[C@@H]2C(=O)N3[C@@H]2SC[C@@H]2CC(=O)O[C@@]23C(=O)O)cs1 (stereo in doubt)
Escherichia coli [1]
  MIC: 0.25 µg/mL
Klebsiella pneumoniae [2]
  MIC: 1 µg/mL
Enterobacter cloacae [3]
  MIC: 0.25 µg/mL
Escherichia coli [4]
  MIC: 0.125 µg/mL
Klebsiella pneumoniae [5]
  MIC: 0.5 µg/mL
Enterobacter cloacae [6]
  MIC: 8 µg/mL

## CC(C)(O/N=C(\C(=O)N[C@H]1CON(C2(C(=O)O)CCC(=O)O2)C1=O)c1csc(N)n1)C(=O)O (stereo in doubt)
Escherichia coli [7]
  MIC: 0.063 µg/mL (≈ 0.13 µM)
Escherichia coli [1]
  MIC: 4 µg/mL
Klebsiella pneumoniae [2]
  MIC: 1 µg/mL
Enterobacter cloacae [3]
  MIC: 1 µg/mL
Escherichia coli [13]
  MIC: 0.063 µg/mL (≈ 0.13 µM)
[26]
  Ratio: 32
Escherichia coli [18]
  MIC: 0.063 µg/mL (≈ 0.13 µM)
[27]
  Ratio: 4
Escherichia coli [4]
  MIC: 0.25 µg/mL
Enterobacter cloacae [6]
  MIC: > 32 µg/mL
Escherichia coli [23]
  MIC: 2 µg/mL (≈ 4.12 µM)
Escherichia coli [24]
  MIC: 0.25 µg/mL (≈ 0.515 µM)

## Nc1nc(/C(=N/OCC(=O)O)C(=O)N[C@@H]2C(=O)N3[C@@H]2S(=O)(=O)C[C@@H]2CC(=O)O[C@@]23C(=O)O)cs1 (stereo in doubt)
Escherichia coli [1]
  MIC: 1 µg/mL
Klebsiella pneumoniae [2]
  MIC: 0.5 µg/mL
Enterobacter cloacae [3]
  MIC: 0.25 µg/mL
Escherichia coli [4]
  MIC: 0.25 µg/mL
Klebsiella pneumoniae [5]
  MIC: 0.5 µg/mL
Enterobacter cloacae [6]
  MIC: 1 µg/mL

## Nc1nc(/C(=N/OCC(=O)O)C(=O)N[C@@H]2C(=O)N3[C@@H]2[S@+]([O-])C[C@@H]2CC(=O)O[C@@]23C(=O)O)cs1 (stereo in doubt)
Escherichia coli [1]
  MIC: 1 µg/mL
Klebsiella pneumoniae [2]
  MIC: 0.5 µg/mL
Enterobacter cloacae [3]
  MIC: 2 µg/mL
Escherichia coli [4]
  MIC: 0.25 µg/mL
Klebsiella pneumoniae [5]
  MIC: 0.5 µg/mL
Enterobacter cloacae [6]
  MIC: > 32 µg/mL

## CCO/N=C(\C(=O)N[C@@H]1C(=O)N2[C@@H]1[S@@+]([O-])C[C@@H]1CC(=O)O[C@@]12C(=O)O)c1csc(N)n1 (stereo in doubt)
Escherichia coli [1]
  MIC: 0.5 µg/mL
Klebsiella pneumoniae [2]
  MIC: 4 µg/mL
Enterobacter cloacae [3]
  MIC: 0.5 µg/mL
Escherichia coli [4]
  MIC: 0.25 µg/mL
Klebsiella pneumoniae [5]
  MIC: 0.5 µg/mL
Enterobacter cloacae [6]
  MIC: 1 µg/mL

## C[C@H]1[C@H](NC(=O)/C(=N\OC(C)(C)C(=O)O)c2csc(N)n2)C(=O)N1S(=O)(=O)O (stereo in doubt) [AZTREONAM]
Enterobacterales [14]
  MIC50: 0.25 µg/mL
  MIC90: 2 µg/mL
Escherichia coli [16]
  MIC: 0.125 µg/mL
Enterobacterales [17]
  MIC50: 0.5 µg/mL
  MIC90: 1 µg/mL
Enterobacterales [19]
  MIC50: 0.063 µg/mL
  MIC90: 0.25 µg/mL
Enterobacterales [25]
  MIC50: 0.25 µg/mL
  MIC90: 1 µg/mL
